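A five-concentration, 48-hour dose response in 96-well plates underlies each endpoint, interpolated linearly between surrounding concentrations. GI50 is the concentration that inhibits growth by half.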 Active and inactive are the calls of the source. No stated cut-off is given here; in the data, active = GI50 up to about 1.1 µM and inactive = higher.
Legend:
Assay in all cases: inhibition of tumour cell growth, NCI panel, 48 h
A549 = system: A549
KM12 = system: KM12
UACC-257 = system: UACC-257
LXFL 529 = system: LXFL 529
HT-29 = system: HT-29
HOP-62 = system: HOP-62
NCI-H460 = system: NCI-H460
KM-20L2 = system: KM-20L2
SK-MEL-2 = system: SK-MEL-2
M14 = system: M14
HCT-116 = system: HCT-116
NCI-H23 = system: NCI-H23
HCC 2998 = system: HCC 2998
ACHN = system: ACHN
SK-MEL-5 = system: SK-MEL-5
IGROV-1 = system: IGROV-1
OVCAR-5 = system: OVCAR-5
NCI-H226 = system: NCI-H226
SK-MEL-28 = system: SK-MEL-28
SW-620 = system: SW-620
K562 = system: K562
TK-10 = system: TK-10
HOP-18 = system: HOP-18
DMS-273 = system: DMS-273
SK-OV-3 = system: SK-OV-3
DLD-1 = system: DLD-1
SNB-75 = system: SNB-75
U-251 = system: U-251
CAKI-1 = system: CAKI-1
M19-MEL = system: M19-MEL
CCRF-CEM = system: CCRF-CEM
SNB-19 = system: SNB-19
XF498 = system: XF498
OVCAR-4 = system: OVCAR-4
NCI-H522 = system: NCI-H522
SF-268 = system: SF-268
LOX IMVI = system: LOX IMVI
SF-295 = system: SF-295
OVCAR-8 = system: OVCAR-8
HL-60 = system: HL-60
MOLT-4 = system: MOLT-4
RPMI-8226 = system: RPMI-8226
DMS-114 = system: DMS-114
UACC-62 = system: UACC-62
OVCAR-3 = system: OVCAR-3
EKVX = system: EKVX
SNB-78 = system: SNB-78
Malme-3M = system: Malme-3M
RXF 393 = system: RXF 393
HCT-15 = system: HCT-15
UO-31 = system: UO-31
SR = system: SR
786-0 = system: 786-0
COLO 205 = system: COLO 205
SN12C = system: SN12C

In the case of `COc1ccc(C2C(Cl)C(=O)N2n2cnc3ccccc3c2=O)cc1` (stereo not given), the GI50 (A549) is reported as > 100 µM (inactive), the GI50 (KM12) is reported as > 100 µM (inactive) and the GI50 (UACC-257) is reported as > 100 µM (inactive). For the same compound, the GI50 (LXFL 529) was 62.1 µM (inactive), the GI50 (HT-29) was > 100 µM (inactive) and the GI50 (HOP-62) was > 100 µM (inactive). The GI50 (NCI-H460) was 70.5 µM (inactive), the GI50 (KM-20L2) was > 100 µM (inactive) and the GI50 (SK-MEL-2) was > 100 µM (inactive). For the same compound, the GI50 (M14) was 28.4 µM (inactive), the GI50 (HCT-116) was 54.6 µM (inactive) and the GI50 (NCI-H23) was 94 µM (inactive). For the same compound, the GI50 (HCC 2998) was > 100 µM (inactive), the GI50 (ACHN) was 40.5 µM (inactive) and the GI50 (SK-MEL-5) was 87.1 µM (inactive). The GI50 (IGROV-1) was > 100 µM (inactive), the GI50 (OVCAR-5) was > 100 µM (inactive) and the GI50 (NCI-H226) was > 100 µM (inactive). The GI50 (SK-MEL-28) was > 100 µM (inactive), the GI50 (SW-620) was > 100 µM (inactive) and the GI50 (K562) was 89.7 µM (inactive). For the same compound, the GI50 (TK-10) was 98.6 µM (inactive), the GI50 (HOP-18) was 24.2 µM (inactive) and the GI50 (DMS-273) was 82.4 µM (inactive). For the same compound, the GI50 (SK-OV-3) was > 100 µM (inactive), the GI50 (DLD-1) was > 100 µM (inactive) and the GI50 (SNB-75) was 29.4 µM (inactive). For the same compound, the GI50 (U-251) was > 100 µM (inactive), the GI50 (CAKI-1) was 82.8 µM (inactive) and the GI50 (M19-MEL) was 76 µM (inactive). For the same compound, the GI50 (CCRF-CEM) was > 10 µM (inactive), the GI50 (SNB-19) was > 100 µM (inactive) and the GI50 (XF498) was > 100 µM (inactive). For the same compound, the GI50 (OVCAR-4) was 33.3 µM (inactive), the GI50 (NCI-H522) was 89.3 µM (inactive) and the GI50 (SF-268) was 87.9 µM (inactive). For the same compound, the GI50 (LOX IMVI) was 77.6 µM (inactive), the GI50 (SF-295) was > 100 µM (inactive) and the GI50 (OVCAR-8) was 51.5 µM (inactive). For the same compound, the GI50 (HL-60) was 59.2 µM (inactive), the GI50 (MOLT-4) was 51.3 µM (inactive) and the GI50 (RPMI-8226) was 33.4 µM (inactive). The GI50 (DMS-114) was 72.8 µM (inactive), the GI50 (UACC-62) was > 100 µM (inactive) and the GI50 (OVCAR-3) was 85.7 µM (inactive). The GI50 (EKVX) was 50.7 µM (inactive), the GI50 (SNB-78) was > 100 µM (inactive) and the GI50 (Malme-3M) was > 100 µM (inactive). For the same compound, the GI50 (RXF 393) was 30.8 µM (inactive), the GI50 (HCT-15) was greater than 100 µM and the GI50 (UO-31) was 71 µM (inactive). For the same compound, the GI50 (SR) was 33 µM (inactive), the GI50 (786-0) was 46.9 µM (inactive) and the GI50 (COLO 205) was 62.2 µM (inactive). For the same compound, the GI50 (SN12C) was > 100 µM (inactive).

From ChEMBL document CHEMBL1201862, “PubChem BioAssay data set” (2004)
